From patent US20260256792A1, “TREATMENT OF CHRONIC SPONTANEOUS URTICARIA BY ADMINISTERING (R)-2-[3-[4-AMINO-3-(2-FLUORO-4-PHENOXY-PHENYL)PYRAZOLO[3,4-D]PYRIMIDIN-1-YL]PIPERIDINE-1-CARBONYL]-4-METHYL-4-[4-(OXETAN-3-YL)PIPERAZIN-1-YL]PENT-2-ENENITRILE” (priority 2023, published 2026)

Test system: moderate-to-severe chronic spontaneous urticaria (CSU)
Assay: Phase 2 CSU study: Patient Global Impression of Change (PGIC)
Format: in vivo, human
Conditions: for PGIC LS Mean (SE) / PGIC LS Mean Diff vs. placebo (95% CI): omalizumab-naïve, ANCOVA; for PGIC Mean (SD) / PGIC Median / PGIC category A little better, patients / PGIC category A little worse, patients / PGIC category Moderately better, patients / PGIC category Moderately worse, patients / PGIC category No change, patients / PGIC category Very much better, patients / PGIC category Very much worse, patients: omalizumab-naïve population
From the text: The study comprises a 12 week, randomized, double-blind, placebo-controlled, multi-center, dose-ranging efficacy and safety phase, followed by a 40 week open label extension (OLE) phase (see FIG. 1).
The study consists of three phases and an optional OLE phase.
The PGIS is a 1-item measure that asks participants to provide a self-assessment of their overall CSU severity for the past week on a 4 point scale. Response choices are: “None”, “Mild”, “Moderate” and “Severe”. The PGIC is a 1-item measure that asks the participant to provide a self-assessment of overall change in their CSU since the participant started taking the study medication on a 7-point scale. The response options range from “Very Much Better” to “Very Much Worse.” Patients were to complete questionnaires for the 2 items during their site visit.

CC(C)(C=C(C#N)C(=O)N1CCC[C@@H](n2nc(-c3ccc(Oc4ccccc4)cc3F)c3c(N)ncnc32)C1)N1CCN(C2COC2)CC1 [rilzabrutinib, (R)-2-[3-[4-amino-3-(2-fluoro-4-phenoxy-phenyl)pyrazolo[3,4-d]pyrimidin-1-yl]piperidine-1-carbonyl]-4-methyl-4-[4-(oxetan-3-yl)piperazin-1-yl]pent-2-enenitrile]
PGIC LS Mean (SE) (Week 4, 400 mg TID): 1.18 | PGIC LS Mean Diff vs. placebo (95% CI) (Week 4, 400 mg TID): −0.90 | PGIC Mean (SD) (Week 8, 400 mg BID): 1.42 | PGIC Median (Week 8, 400 mg BID): 1.00 | PGIC category A little better, patients (Week 8, 400 mg BID): 3 (9.1) | PGIC category A little worse, patients (Week 8, 400 mg BID): 1 (3.0) | PGIC category Moderately better, patients (Week 8, 400 mg BID): 8 (24.2) | PGIC category Moderately worse, patients (Week 8, 400 mg BID): 1 (3.0) | PGIC category No change, patients (Week 8, 400 mg BID): 6 (18.2) | PGIC category Very much better, patients (Week 8, 400 mg BID): 13 (39.4) | PGIC category Very much worse, patients (Week 8, 400 mg BID): 1 (3.0) | PGIC LS Mean (SE) (Week 8, 400 mg BID): 1.43 | PGIC LS Mean Diff vs. placebo (95% CI) (Week 8, 400 mg BID): −0.41 | PGIC Mean (SD) (Week 8, 400 mg QPM): 2.21 | PGIC Median (Week 8, 400 mg QPM): 2.00 | PGIC category A little better, patients (Week 8, 400 mg QPM): 9 (27.3) | PGIC category A little worse, patients (Week 8, 400 mg QPM): 2 (6.1) | PGIC category Moderately better, patients (Week 8, 400 mg QPM): 6 (18.2) | PGIC category Moderately worse, patients (Week 8, 400 mg QPM): 1 (3.0) | PGIC category No change, patients (Week 8, 400 mg QPM): 10 (30.3) | PGIC category Very much better, patients (Week 8, 400 mg QPM): 4 (12.1) | PGIC category Very much worse, patients (Week 8, 400 mg QPM): 1 (3.0) | PGIC LS Mean (SE) (Week 8, 400 mg QPM): 2.10 | PGIC LS Mean Diff vs. placebo (95% CI) (Week 8, 400 mg QPM): 0.27 | PGIC Mean (SD) (Week 8, 400 mg TID): 0.90 | PGIC Median (Week 8, 400 mg TID): 1.00 | PGIC category A little better, patients (Week 8, 400 mg TID): 2 (6.7) | PGIC category A little worse, patients (Week 8, 400 mg TID): 1 (3.3) | PGIC category Moderately better, patients (Week 8, 400 mg TID): 10 (33.3) | PGIC category Moderately worse, patients (Week 8, 400 mg TID): 0 | PGIC category No change, patients (Week 8, 400 mg TID): 3 (10.0) | PGIC category Very much better, patients (Week 8, 400 mg TID): 14 (46.7) | PGIC category Very much worse, patients (Week 8, 400 mg TID): 0 | PGIC LS Mean (SE) (Week 8, 400 mg TID): 0.98 | PGIC LS Mean Diff vs. placebo (95% CI) (Week 8, 400 mg TID): −0.86 | PGIC Mean (SD) (Week 12, 400 mg BID): 1.03 | PGIC Median (Week 12, 400 mg BID): 0.50 | PGIC category A little better, patients (Week 12, 400 mg BID): 1 (3.3) | PGIC category A little worse, patients (Week 12, 400 mg BID): 1 (3.3) | PGIC category Moderately better, patients (Week 12, 400 mg BID): 8 (26.7) | PGIC category Moderately worse, patients (Week 12, 400 mg BID): 1 (3.3) | PGIC category No change, patients (Week 12, 400 mg BID): 4 (13.3) | PGIC category Very much better, patients (Week 12, 400 mg BID): 15 (50.0) | PGIC category Very much worse, patients (Week 12, 400 mg BID): 0 | PGIC LS Mean (SE) (Week 12, 400 mg BID): 1.17 | PGIC LS Mean Diff vs. placebo (95% CI) (Week 12, 400 mg BID): −0.46 | PGIC Mean (SD) (Week 12, 400 mg QPM): 2.12 | PGIC Median (Week 12, 400 mg QPM): 2.00 | PGIC category A little better, patients (Week 12, 400 mg QPM): 7 (20.6) | PGIC category A little worse, patients (Week 12, 400 mg QPM): 2 (5.9) | PGIC category Moderately better, patients (Week 12, 400 mg QPM): 6 (17.6) | PGIC category Moderately worse, patients (Week 12, 400 mg QPM): 1 (2.9) | PGIC category No change, patients (Week 12, 400 mg QPM): 11 (32.4) | PGIC category Very much better, patients (Week 12, 400 mg QPM): 6 (17.6) | PGIC category Very much worse, patients (Week 12, 400 mg QPM): 1 (2.9) | PGIC LS Mean (SE) (Week 12, 400 mg QPM): 2.00 | PGIC LS Mean Diff vs. placebo (95% CI) (Week 12, 400 mg QPM): 0.38 | PGIC Mean (SD) (Week 12, 400 mg TID): 0.97 | PGIC Median (Week 12, 400 mg TID): 0.00 | PGIC category A little better, patients (Week 12, 400 mg TID): 4 (12.9) | PGIC category A little worse, patients (Week 12, 400 mg TID): 2 (6.5) | PGIC category Moderately better, patients (Week 12, 400 mg TID): 5 (16.1) | PGIC category Moderately worse, patients (Week 12, 400 mg TID): 0 | PGIC category No change, patients (Week 12, 400 mg TID): 3 (9.7) | PGIC category Very much better, patients (Week 12, 400 mg TID): 17 (54.8) | PGIC category Very much worse, patients (Week 12, 400 mg TID): 0 | PGIC LS Mean (SE) (Week 12, 400 mg TID): 0.98 | PGIC LS Mean Diff vs. placebo (95% CI) (Week 12, 400 mg TID): −0.64
